{
  "source": "ChEMBL document CHEMBL1201862",
  "about": "“PubChem BioAssay data set” (2004)",
  "key": {"[1]": {"target": "T1, Heat shock factor protein 1 (Mus musculus, UniProt P38532)", "T1 sequence (P38532 whole entry)": "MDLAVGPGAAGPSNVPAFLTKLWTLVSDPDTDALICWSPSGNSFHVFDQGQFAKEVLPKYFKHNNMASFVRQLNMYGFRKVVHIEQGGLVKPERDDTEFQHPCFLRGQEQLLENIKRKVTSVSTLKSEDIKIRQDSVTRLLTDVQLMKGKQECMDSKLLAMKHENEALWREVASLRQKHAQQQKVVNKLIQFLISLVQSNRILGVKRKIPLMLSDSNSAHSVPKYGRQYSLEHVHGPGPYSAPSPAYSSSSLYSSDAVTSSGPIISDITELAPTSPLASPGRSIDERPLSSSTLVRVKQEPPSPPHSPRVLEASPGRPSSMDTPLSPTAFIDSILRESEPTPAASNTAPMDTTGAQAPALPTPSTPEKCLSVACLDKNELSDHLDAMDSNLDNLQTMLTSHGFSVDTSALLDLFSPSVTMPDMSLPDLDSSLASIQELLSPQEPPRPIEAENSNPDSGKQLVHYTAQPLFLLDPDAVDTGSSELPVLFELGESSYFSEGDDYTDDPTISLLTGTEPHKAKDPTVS", "experiment": "decrease of HSF1-responsive luciferase luminescence – cell-based, NIH3T3, dose retest, confirmation (AID 2382);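 note: NIH3T3 fibroblasts with HSF1-driven luciferase reporter stressed by proteasome inhibitor MG132; luminescence from HSF1-driven luciferase expression after 8 hours of MG132 stress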", "format": "functional"}, "[2]": {"target": "T2, Polyadenylate-binding protein 1 (Homo sapiens, UniProt P11940)", "T2 sequence (P11940 whole entry)": "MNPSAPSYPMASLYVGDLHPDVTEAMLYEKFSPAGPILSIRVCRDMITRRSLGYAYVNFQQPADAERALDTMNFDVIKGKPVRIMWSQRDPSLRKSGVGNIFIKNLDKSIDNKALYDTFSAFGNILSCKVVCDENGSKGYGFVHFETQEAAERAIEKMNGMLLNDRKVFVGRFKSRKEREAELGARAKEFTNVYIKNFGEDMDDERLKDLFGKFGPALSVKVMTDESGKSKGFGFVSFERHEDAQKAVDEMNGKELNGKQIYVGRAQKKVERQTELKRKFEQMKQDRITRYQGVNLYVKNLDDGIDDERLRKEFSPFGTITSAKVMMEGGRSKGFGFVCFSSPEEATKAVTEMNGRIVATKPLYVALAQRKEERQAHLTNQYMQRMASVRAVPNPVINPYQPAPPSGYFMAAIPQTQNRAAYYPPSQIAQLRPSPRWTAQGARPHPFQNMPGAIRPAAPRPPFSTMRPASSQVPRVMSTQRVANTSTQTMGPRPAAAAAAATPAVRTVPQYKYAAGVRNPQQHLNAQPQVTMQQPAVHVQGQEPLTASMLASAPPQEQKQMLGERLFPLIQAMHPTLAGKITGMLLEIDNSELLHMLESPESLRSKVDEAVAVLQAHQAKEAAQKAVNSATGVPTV", "experiment": "MLLE binding blockers, Cy5 peptide tracer – biochemical, fluorescence polarization, Cy5-PAM2 peptide, secondary, miRNA deadenylation inhibitor project, dose response (AID 602260)", "format": "functional", "conditions": "read-out: IC50_Mean"}, "[3]": {"target": "T2, Polyadenylate-binding protein 1", "experiment": "MLLE domain peptide-binding blockers, IC50 – biochemical, fluorescence polarization, FITC-PAM2 peptide, dose response (AID 602259)", "format": "functional", "conditions": "read-out: IC50_Mean"}, "[4]": {"target": "T3, Corticotropin-releasing factor receptor 2/Corticotropin-releasing factor-binding protein (Homo sapiens, UniProt P24387+Q13324)", "T3 sequence (Q13324 whole entry)": "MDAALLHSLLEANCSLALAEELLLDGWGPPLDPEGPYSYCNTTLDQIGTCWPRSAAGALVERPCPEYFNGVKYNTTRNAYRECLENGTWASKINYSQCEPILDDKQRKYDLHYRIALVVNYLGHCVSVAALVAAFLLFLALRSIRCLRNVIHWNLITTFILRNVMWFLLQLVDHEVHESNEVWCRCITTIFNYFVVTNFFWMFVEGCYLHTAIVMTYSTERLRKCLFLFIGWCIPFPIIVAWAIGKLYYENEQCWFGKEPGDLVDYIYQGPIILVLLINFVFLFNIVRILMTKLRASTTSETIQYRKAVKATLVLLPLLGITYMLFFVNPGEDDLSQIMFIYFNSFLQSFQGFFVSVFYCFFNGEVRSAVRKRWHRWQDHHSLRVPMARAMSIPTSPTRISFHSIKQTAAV", "T3 sequence (P24387 whole entry)": "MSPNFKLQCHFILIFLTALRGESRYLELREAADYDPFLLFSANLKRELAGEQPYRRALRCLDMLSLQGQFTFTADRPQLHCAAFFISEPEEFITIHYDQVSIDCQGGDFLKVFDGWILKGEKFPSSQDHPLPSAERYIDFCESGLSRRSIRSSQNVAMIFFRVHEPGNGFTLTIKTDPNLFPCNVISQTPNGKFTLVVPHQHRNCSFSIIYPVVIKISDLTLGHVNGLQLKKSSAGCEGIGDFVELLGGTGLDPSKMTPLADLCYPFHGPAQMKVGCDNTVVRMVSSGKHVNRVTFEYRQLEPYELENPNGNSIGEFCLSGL", "experiment": "activators of CRF receptor 2 with binding protein – uHTS hits, confirmation (AID 602473)", "format": "functional", "conditions": "read-out: EC50_Mean"}, "[5]": {"experiment": "viability of PTEN-deleted HCT116 cells – cell-based, HCT116 PTEN knockout, dose response (AID 1047);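 note: cells exposed to compound for 60 hours before readout; potency for loss of cell viability measured by luminescence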", "format": "functional"}, "[6]": {"experiment": "viability of HCT116 lacking mutant beta-catenin – cell-based, human colon tumor, dose response (AID 1045);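 note: cells exposed to compound for 60 hours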", "format": "functional"}, "Cytochrome P450 2C9": {"target": "Cytochrome P450 2C9 (Homo sapiens, UniProt P11712)", "sequence (P11712 whole entry)": "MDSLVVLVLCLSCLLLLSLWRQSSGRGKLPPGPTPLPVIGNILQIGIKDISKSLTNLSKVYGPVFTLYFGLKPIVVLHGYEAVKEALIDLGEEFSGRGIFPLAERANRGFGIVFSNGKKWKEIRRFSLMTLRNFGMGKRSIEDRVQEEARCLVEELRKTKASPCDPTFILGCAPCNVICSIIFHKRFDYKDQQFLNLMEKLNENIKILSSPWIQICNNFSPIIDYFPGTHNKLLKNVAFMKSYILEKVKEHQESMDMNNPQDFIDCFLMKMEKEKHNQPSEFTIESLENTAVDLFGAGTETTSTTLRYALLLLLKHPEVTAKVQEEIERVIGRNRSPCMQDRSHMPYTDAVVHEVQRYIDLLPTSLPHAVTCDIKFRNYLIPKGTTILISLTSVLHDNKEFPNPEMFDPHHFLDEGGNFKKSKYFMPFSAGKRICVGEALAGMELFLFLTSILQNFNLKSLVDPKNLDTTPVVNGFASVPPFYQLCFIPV"}, "[7]": {"target": "T4, Calpain-2 catalytic subunit (Sus scrofa, UniProt P43367)", "T4 sequence (P43367 whole entry)": "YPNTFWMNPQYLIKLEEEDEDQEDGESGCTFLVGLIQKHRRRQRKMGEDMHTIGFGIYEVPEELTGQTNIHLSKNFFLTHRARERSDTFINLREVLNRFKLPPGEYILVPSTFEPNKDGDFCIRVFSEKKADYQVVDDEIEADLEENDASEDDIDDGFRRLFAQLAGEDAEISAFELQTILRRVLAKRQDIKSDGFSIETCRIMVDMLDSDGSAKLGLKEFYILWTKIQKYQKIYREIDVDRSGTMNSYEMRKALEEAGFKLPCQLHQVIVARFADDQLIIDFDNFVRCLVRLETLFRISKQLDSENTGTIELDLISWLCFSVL", "experiment": "m-calpain protease blockers, concentration series – biochemical, fluorogenic peptide substrate, dose response (AID 1420)", "format": "functional"}, "Fatty acid synthase [8]": {"target": "T5, Fatty acid synthase (Homo sapiens, UniProt P49327)", "T5 sequence (P49327 whole entry)": "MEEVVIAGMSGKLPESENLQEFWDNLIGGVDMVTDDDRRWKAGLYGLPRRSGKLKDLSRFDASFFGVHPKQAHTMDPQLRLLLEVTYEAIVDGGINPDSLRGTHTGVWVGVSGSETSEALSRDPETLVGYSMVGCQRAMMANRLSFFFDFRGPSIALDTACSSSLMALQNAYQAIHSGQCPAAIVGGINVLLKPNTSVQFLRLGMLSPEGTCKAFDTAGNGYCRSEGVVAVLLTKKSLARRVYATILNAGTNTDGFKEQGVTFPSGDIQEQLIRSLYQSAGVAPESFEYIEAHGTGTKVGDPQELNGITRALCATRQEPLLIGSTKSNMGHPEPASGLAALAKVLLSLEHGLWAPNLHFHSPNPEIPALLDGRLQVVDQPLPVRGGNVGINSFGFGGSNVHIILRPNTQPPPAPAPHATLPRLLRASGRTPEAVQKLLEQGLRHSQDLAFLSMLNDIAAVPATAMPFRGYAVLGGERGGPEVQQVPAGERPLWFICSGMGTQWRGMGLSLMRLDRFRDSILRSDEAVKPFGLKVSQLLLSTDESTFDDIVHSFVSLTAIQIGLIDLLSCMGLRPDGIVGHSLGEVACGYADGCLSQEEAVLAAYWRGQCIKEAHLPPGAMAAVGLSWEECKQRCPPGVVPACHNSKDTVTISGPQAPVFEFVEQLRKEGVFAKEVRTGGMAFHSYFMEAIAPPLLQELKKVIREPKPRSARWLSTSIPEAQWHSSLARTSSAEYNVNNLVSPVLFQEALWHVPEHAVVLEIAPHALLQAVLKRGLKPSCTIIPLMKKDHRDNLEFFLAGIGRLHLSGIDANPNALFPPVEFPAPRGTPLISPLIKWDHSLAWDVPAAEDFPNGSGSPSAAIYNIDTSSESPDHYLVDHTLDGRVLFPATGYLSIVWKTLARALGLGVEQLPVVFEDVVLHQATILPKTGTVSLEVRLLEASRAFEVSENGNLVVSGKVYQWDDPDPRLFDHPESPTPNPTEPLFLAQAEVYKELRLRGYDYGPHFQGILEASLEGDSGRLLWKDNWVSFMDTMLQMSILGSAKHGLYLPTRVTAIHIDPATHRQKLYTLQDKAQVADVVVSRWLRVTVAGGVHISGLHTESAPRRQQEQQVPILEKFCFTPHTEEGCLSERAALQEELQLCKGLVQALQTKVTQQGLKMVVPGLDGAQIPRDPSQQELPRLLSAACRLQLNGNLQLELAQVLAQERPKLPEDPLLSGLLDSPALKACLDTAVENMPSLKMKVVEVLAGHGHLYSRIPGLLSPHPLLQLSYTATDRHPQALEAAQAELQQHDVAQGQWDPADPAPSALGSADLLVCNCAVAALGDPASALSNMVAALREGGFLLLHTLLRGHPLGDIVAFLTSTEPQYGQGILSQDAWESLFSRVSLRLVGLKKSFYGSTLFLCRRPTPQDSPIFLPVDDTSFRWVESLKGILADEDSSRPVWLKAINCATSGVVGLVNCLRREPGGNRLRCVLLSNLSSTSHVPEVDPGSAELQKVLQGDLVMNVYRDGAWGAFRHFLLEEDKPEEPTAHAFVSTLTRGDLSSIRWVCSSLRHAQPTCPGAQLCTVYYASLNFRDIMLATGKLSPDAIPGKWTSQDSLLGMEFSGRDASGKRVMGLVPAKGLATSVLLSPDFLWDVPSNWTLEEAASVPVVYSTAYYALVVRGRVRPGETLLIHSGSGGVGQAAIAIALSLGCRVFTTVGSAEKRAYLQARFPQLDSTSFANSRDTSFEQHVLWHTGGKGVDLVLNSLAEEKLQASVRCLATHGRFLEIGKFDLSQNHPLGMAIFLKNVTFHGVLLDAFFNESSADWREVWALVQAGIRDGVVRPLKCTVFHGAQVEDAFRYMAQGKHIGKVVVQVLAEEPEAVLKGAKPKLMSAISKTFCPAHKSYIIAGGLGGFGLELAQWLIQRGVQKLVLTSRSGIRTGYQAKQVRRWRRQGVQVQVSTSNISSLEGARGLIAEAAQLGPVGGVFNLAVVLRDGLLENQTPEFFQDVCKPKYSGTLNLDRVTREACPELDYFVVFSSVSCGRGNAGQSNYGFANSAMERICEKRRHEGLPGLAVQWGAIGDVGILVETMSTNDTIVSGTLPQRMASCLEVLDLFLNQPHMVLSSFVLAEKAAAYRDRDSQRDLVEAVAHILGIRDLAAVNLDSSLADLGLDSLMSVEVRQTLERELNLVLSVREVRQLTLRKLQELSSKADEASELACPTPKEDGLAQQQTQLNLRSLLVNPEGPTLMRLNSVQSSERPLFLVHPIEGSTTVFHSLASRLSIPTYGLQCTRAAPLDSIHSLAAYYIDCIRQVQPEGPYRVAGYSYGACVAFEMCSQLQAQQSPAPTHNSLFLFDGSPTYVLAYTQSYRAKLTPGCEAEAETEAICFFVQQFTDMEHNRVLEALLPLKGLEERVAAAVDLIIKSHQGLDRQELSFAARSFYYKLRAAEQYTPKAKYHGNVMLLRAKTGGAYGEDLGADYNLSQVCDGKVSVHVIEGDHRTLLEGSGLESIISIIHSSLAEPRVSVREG", "experiment": "inhibition of human FAS-TE enzyme activity – biochemical, endpoint fluorescence intensity, uHTS hits, dose response (AID 624327);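 note: fluorescence from hydrolysis of an O-methyl fluorescein acyl ester substrate by the enzyme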", "format": "functional"}, "Fatty acid synthase [9]": {"target": "T5, Fatty acid synthase", "experiment": "inhibition of human FAS-TE enzyme activity – biochemical, kinetic fluorescence intensity, dose response (AID 624326);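 note: rate of fluorescence rise from hydrolysis of a fluorogenic O-methyl fluorescein ester substrate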", "format": "functional"}, "[10]": {"target": "Luciferin 4-monooxygenase (Photinus pyralis, UniProt P08659)", "sequence (P08659 whole entry)": "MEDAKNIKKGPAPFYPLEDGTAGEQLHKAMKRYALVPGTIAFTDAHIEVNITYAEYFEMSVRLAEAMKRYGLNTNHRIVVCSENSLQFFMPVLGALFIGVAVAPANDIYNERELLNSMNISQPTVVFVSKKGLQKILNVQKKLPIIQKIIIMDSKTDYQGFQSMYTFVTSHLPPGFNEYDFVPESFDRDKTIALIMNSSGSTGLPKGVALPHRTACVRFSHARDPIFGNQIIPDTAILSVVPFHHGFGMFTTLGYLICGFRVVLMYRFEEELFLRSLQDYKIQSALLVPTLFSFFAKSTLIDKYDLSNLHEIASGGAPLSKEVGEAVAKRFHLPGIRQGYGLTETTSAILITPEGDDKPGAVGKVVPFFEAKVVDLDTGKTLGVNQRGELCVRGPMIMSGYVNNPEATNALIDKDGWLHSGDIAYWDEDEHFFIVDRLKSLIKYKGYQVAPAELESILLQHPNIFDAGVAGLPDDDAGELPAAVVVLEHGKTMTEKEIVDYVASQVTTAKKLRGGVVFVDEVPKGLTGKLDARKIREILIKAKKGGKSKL", "experiment": "inhibition of purified Photinus pyralis luciferase – biochemical, luminescence, dose response (AID 1891)"}, "[11]": {"experiment": "Luminescence Cell-Based Dose Confirmation HTS to Identify Inhibitors of Platelet Dense Granule Release. [Related pubchem assays: 1663 (Primary HTS), 1678 (Summary of Project)]", "format": "functional"}, "[12]": {"target": "T6, RNA-binding protein pos-1 (Caenorhabditis elegans, UniProt G5EF15)", "T6 sequence (G5EF15 whole entry)": "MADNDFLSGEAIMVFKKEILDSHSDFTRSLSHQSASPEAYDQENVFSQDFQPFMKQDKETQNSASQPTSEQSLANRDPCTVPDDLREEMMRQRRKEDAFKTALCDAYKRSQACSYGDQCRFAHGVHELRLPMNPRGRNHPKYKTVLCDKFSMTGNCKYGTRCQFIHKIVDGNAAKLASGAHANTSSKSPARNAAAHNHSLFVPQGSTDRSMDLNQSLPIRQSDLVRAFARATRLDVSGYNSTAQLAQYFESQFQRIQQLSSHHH", "experiment": "disruptors of C. elegans POS-1 RNA interaction – biochemical, fluorescence polarization, dose response (AID 1964);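 note: purified POS-1 fused to maltose binding protein made in E. coli; potency of compounds blocking POS-1 binding to fluorescent RNA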"}, "[13]": {"target": "T7, Zinc finger protein mex-5 (Caenorhabditis elegans, UniProt Q9XUB2)", "T7 sequence (Q9XUB2 whole entry)": "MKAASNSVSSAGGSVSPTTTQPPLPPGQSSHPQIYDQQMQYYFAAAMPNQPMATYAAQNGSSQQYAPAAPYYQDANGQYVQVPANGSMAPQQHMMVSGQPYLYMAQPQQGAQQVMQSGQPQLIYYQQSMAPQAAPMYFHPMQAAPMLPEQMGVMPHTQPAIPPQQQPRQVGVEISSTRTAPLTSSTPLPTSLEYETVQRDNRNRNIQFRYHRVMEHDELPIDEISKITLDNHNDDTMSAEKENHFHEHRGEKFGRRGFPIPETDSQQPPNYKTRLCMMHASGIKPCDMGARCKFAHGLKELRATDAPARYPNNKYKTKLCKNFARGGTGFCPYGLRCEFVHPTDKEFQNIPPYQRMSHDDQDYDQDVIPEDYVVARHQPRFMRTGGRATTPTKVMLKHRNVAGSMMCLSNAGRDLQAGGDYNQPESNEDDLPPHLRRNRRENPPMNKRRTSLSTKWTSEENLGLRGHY", "experiment": "potency of MEX-5 RNA-binding blockers – biochemical, C. elegans, fluorescence polarization, dose response (AID 1960)"}},
  "note": "Calls of active or inactive are those of the source.",
  "data": [
    {"compound": "CCCNC(=O)N1CCCC(C(=O)c2cccc(Cl)c2)C1", "note": "(centres undefined)", "values": [
      {"measurement": "EC50", "setting": "[1]", "value": "> 195 µM (not active)"}
    ]},
    {"compound": "N#C/C(=C\\c1ccccc1[N+](=O)[O-])C(=O)NC1CCCCC1", "values": [
      {"measurement": "IC50", "setting": "[2]", "value": "> 66 µM (inactive)"},
      {"measurement": "IC50", "setting": "[3]", "value": "> 66 µM (inactive)"},
      {"measurement": "EC50", "setting": "[4]", "value": "> 53 µM (inactive)"}
    ]},
    {"compound": "Cc1cnn(-c2cc(N/N=C/c3ccccc3F)ncn2)c1", "values": [
      {"measurement": "EC50", "setting": "[5]", "value": "12.7 µM (active)"},
      {"measurement": "EC50", "setting": "[6]", "value": "21 µM (active)"},
      {"measurement": "AC50", "setting": "Cytochrome P450 2C9", "value": "1.26 µM (inconclusive)"}
    ]},
    {"compound": "O=C(COC(=O)C1CCCCC1)Nc1cc([N+](=O)[O-])ccc1F", "values": [
      {"measurement": "IC50", "setting": "[7]", "value": "> 50 µM (not active)"},
      {"measurement": "IC50", "setting": "Fatty acid synthase [8]", "value": "7.45 µM (active)"},
      {"measurement": "IC50", "setting": "Fatty acid synthase [9]", "value": "8.3 µM (active)"}
    ]},
    {"compound": "CCC(/N=c1\\cc(-c2ccc(OC)c(OC)c2)oc2ccc(C)cc12)C(=O)O", "note": "(centres undefined)", "values": [
      {"measurement": "EC50", "setting": "[1]", "value": "> 195 µM (not active)"}
    ]},
    {"compound": "O=C(CSc1ncnc2c1nnn2Cc1ccccc1)NC1CCCCC1", "values": [
      {"measurement": "IC50", "setting": "Fatty acid synthase [8]", "value": "24.3 µM (inactive)"},
      {"measurement": "IC50", "setting": "Fatty acid synthase [9]", "value": "23.6 µM (inactive)"}
    ]},
    {"compound": "CCOC(=O)c1cc2c(=O)n3cccc(C)c3nc2n(C)c1=N", "values": [
      {"measurement": "EC50", "setting": "[5]", "value": "6.72 µM (active)"},
      {"measurement": "EC50", "setting": "[6]", "value": "4.97 µM (active)"}
    ]},
    {"compound": "CN(C(=O)COC(=O)c1cc(O)nc2ccccc12)c1c(N)n(Cc2ccccc2)c(=O)[nH]c1=O", "values": [
      {"measurement": "EC50", "setting": "[1]", "value": "> 195 µM (not active)"}
    ]},
    {"compound": "CCOc1ccccc1NC(=O)COC(=O)Cc1cccs1", "values": [
      {"measurement": "EC50", "setting": "[10]", "value": "> 112 µM (not active)"},
      {"measurement": "EC50", "setting": "[11]", "value": "> 112 µM (not active)"}
    ]},
    {"compound": "CCCc1nc2sc3c(c2c(=O)n1NC(=O)CCC(=O)OC)CCCC3", "values": [
      {"measurement": "EC50", "setting": "[10]", "value": "> 112 µM (not active)"},
      {"measurement": "EC50", "setting": "[11]", "value": "> 112 µM (not active)"}
    ]},
    {"compound": "Cn1cccc1/C=C1\\C(=O)NC(=O)N(CCC2=CCCCC2)C1=O", "values": [
      {"measurement": "EC50", "setting": "[12]", "value": "230 µM (inconclusive)"},
      {"measurement": "EC50", "setting": "[13]", "value": "35.6 µM (inconclusive)"},
      {"measurement": "EC50", "setting": "[5]", "value": "67.2 µM (active)"},
      {"measurement": "EC50", "setting": "[6]", "value": "82.1 µM (active)"}
    ]}
  ]
}
